Biological target: T1, leukotriene induced contraction of guinea pig tracheal tissues (Cavia porcellus, UniProt Q2NNR5)
T1 construct: Guinea pig (adult male albino Hartley strain) tracheal spiral strips; from tissue; host or cells: guinea pig (adult male albino Hartley) tracheal spiral strips
T1 sequence (Q2NNR5 1-340): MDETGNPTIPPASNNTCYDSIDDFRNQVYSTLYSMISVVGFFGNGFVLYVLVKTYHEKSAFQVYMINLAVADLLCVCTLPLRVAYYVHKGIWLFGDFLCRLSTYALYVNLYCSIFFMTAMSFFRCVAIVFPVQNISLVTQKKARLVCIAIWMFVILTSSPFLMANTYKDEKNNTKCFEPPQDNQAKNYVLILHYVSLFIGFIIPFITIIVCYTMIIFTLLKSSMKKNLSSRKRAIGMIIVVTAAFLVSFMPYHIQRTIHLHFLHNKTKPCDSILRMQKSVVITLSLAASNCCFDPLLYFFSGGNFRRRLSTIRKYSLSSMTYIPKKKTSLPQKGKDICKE
Assay: Inhibition of leukotriene (LTD4) induced contraction of guinea pig tracheal spiral strips in vitro
Type: cell-based
Conditions: LTD4 concentration-response on guinea pig tracheal strips, 30 min pretreatment with test compound, meclofenamic acid 1uM; EC30 shift; current average data; read-out: -LogKB (converted)
Method: The leukotriene antagonist activity of the compounds of this invention is measured by the ability of the compounds to inhibit the leukotriene induced contraction of guinea pig tracheal tissues in vitro. The following methodology was employed: In vitro: Guinea pig (adult male albino Hartley strain) tracheal spiral strips of approximate dimensions 2 to 3 mm cross sectional width and 3.5 cm length were bathed in modified Krebs buffer in jacketed 10 ml tissue bath and continuously aerated with 95% O2 /5% CO2. The tissues were connected via silk suture to force displacement transducers for recording isometric tension. The tissues were equilibrated for 1 hr., pretreated for 15 minutes with meclofenamic acid (1uM) to remove intrinsic prostaglandin responses, and then pretreated for an additional 30 minutes with either the test compound or vehicle control. A cumulative concentration-response curve for LTD4 on triplicate tissues was generated by successive increases in the bath concentration of the LTD4. In order to minimize intertissue variability, the contractions elicited by LTD4 were standardized as a percentage of the maximum response obtained to a reference agonist, carbachol (10uM). Calculations: The averages of the triplicate LTD4 concentration response curves both in the presence and absence of the test compound were plotted on log graph paper. The concentration of LTD4 needed to elicit 30% of the contraction elicited by carbachol was measured and defined as the EC30. The -log KB value for the test compound was determined by the following equations: [formula] […] The antagonist activity of representative compounds of this invention is listed in Table I. The -log KB values were calculated from the above protocol. Where compounds were tested more than once, the -log KB values given here represent the current average data.

Going from `O=C(CCSC(c1ccccc1CCCCCCCCc1ccccc1)C(O)C(=O)O)NS(=O)(=O)c1ccccc1` (stereo not drawn) [2-Hydroxy-3-[2-(N-phenylsulfonylcarbamoylethyl)thio]-3-[2-(8 phenyloctyl)phenyl]propanoic acid] to `O=C(O)CCSC(CC(=O)NS(=O)(=O)c1ccccc1)c1ccccc1CCCCCCCCc1ccccc1` (stereo not drawn) [Compound 2, N-[3-(Carboxyethylthio)-3-[2-(8-phenyloctyl)phenyl]]propionylbenzenesulfonamide], the Kd rises from 39.8 nM to 316 nM (7.9-fold).

`CS(=O)(=O)NC(=O)CC(SCCC(=O)O)c1ccccc1CCCCCCCCc1ccccc1` (stereo not drawn) [Compound 3, N-[3-(carboxyethylthio)-3-[2 (8 phenyloctyl)phenyl]propionyl]methanesulfonamide] was tested, and the Kd was 398 nM.
